Test results reported in patent US20070196816A1, “Engineered stimulus-responsive switches” (priority 2000, published 2007).

Tests used:
GST-Bcl2 = GST-Bcl2 (Homo sapiens, UniProt P10415); settings: specific binding; Rodi et al.; cited from earlier work
lambda phage = experiment: Immunity experiments: plaque formation on lambda phage infection of LE392 cells containing engineered repressors, with and without taxol; format: cell-based; settings: 30° C., scored at 24 and 48 hours
Source text: There are multiple ways to evaluate lambda repressor function. One such method exploits the central role of the repressor in controlling the decision of lambda phage to enter the lytic or the lysogenic phase. In the presence of a high concentration of functional cI in the bacterial cell, entering lambda phage are pushed into the lysogenic phase. In the absence of cI, bacteria are susceptible to infection by lambda phage: the lysed cells manifest as plaques on a bacterial lawn. The level of functional cI in a cell determines whether incoming phage will continue to enter the lytic cycle or choose the lysogenic cycle, when the phage is integrated into the host genome. Cells with functional cI can thus display immunity to phage superinfection. In addition it is also possible to conduct in vitro experiments, such as electrophoretic mobility shift assays where binding of purified protein to labeled oligonucleotide duplexes can be monitored.
The repressors were placed under the control of a constitutive promoter (tet promoter) in a pUNI (Invitrogen) donor vector. […]
Five sets of experiments have been done with each of the cI-bZIP, TBD-cI-bZIP, and TBD-ΔK-cI-bZIP constructs. […] Plaque phenotype was scored at 24 and 48 hours of incubation at 30° C. The number of plaques was counted for three experiments using 3-5 replicates for each set.

GST-Bcl2, sequence (P10415 whole entry): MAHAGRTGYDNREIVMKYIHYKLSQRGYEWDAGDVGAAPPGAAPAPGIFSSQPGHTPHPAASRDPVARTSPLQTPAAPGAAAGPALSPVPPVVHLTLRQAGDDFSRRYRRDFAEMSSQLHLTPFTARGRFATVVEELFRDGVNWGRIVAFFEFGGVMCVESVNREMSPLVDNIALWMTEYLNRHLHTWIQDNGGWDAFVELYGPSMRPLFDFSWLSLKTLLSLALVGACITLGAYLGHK

CC(=O)O[C@H]1C(=O)[C@@]2(C)[C@H]([C@H](OC(=O)c3ccccc3)[C@]3(O)C[C@H](OC(=O)[C@H](O)[C@@H](NC(=O)c4ccccc4)c4ccccc4)C(C)=C1C3(C)C)[C@]1(OC(C)=O)CO[C@@H]1C[C@@H]2O [taxol]
Kd of taxol binding to GST-Bcl2 (GST-Bcl2): nanomolar range

cI-bZIP: chimeric repressor: DNA binding domain and linker of lambda repressor (cI aa 1-132) fused to GCN4 leucine zipper; SEQ ID NO: 12
Change of plaque phenotype/size on addition of taxol (lambda phage; 100 uM taxol in culture and top agar): not changed | Plaque phenotype (size) on infection with lambda phage (lambda phage; LE392 cells containing the repressor, absence of taxol): miniscule plaques barely visible to the eye
